{
  "source": "patent US9957253B2",
  "about": "“Triaminopyrimidine compounds useful for preventing or treating malaria” (MMV MEDICINES FOR MALARIA VENTURE, priority 2014, dated 2018)",
  "system": "P. falciparum field isolates",
  "experiment": "Ex vivo drug susceptibility (schizont maturation) of P. falciparum field isolates",
  "assay_type": "cell-based",
  "details": "Plasmodium falciparum; Plasmodium field isolates, ex vivo; read-out: P. falciparum IC50",
  "method": "Further, compounds of the invention (Examples 2 and 13) were also tested against field isolates of falciparum and vivax malaria, along with three control antimalarials as described in the protocol below.\nEx Vivo Activity of Examples 2 and 13 Against Drug Resistant P. falciparum and P. Vivax Field Isolates\nStandard antimalarial drugs chloroquine (CQ), amodiaquine (AQ), piperaquine (PIP), mefloquine (MFQ), and artesunate (AS) and compounds of the invention were prepared as 1 mg/mL stock solutions in H2O or dimethyl sulfoxide (DMSO) according to the manufacturers' instructions. Drug plates were pre-dosed by diluting the compounds in 50% Methanol followed by lyophilisation and stored at 4° C.\nPlasmodium isolates were collected from patients attending malaria clinics in Timika (Papua, Indonesia), a region endemic for multi-drug-resistant strains of P. vivax and P. falciparum. Patients with symptomatic malaria presenting to an outpatient facility were recruited into the study if singly infected with P. falciparum or P. vivax, with a parasitaemia of between 2,000 μl-1 and 80,000 μl-1, and the majority (>80%) of parasites at ring stage of development. Venous blood (5 mL) was collected by venipuncture and after removal of host white blood cells by using cellulose (Sigma-Aldrich, Australia) filtration, packed infected red blood cells (iRBCs) were used for the ex vivo drug susceptibility assay.\nDrug susceptibility of P. vivax and P. falciparum isolates was measured using a protocol modified from the WHO microtest as described previously (Marfurt et al., 2011, Antimicrob Agents Chemother., 55(9):4461). Two hundred μL of a 2% haematocrit Blood Media Mixture (BMM), consisting of RPMI 1640 medium plus 10% AB+ human serum (P. falciparum) or McCoy's 5 A medium plus 20% AB+ human serum (P. vivax), was added to each well of pre-dosed drug plates containing 11 serial concentrations (2-fold dilutions) of the antimalarials (maximum concentration shown in brackets) CQ (2,992 nM), AQ (158 nM), PIP (1,029 nM), MFQ (338 nM), AS (49 nM), and a compound of the invention (2,146 nM). A candle jar was used to mature the parasites at 37.0° C. for 35-56 hours.\nThick blood films made from each well were stained with 5% Giemsa solution for 30 minutes and examined microscopically. The number of schizonts per 200 asexual stage parasites was determined for each drug concentration and normalised to the control well. The dose-response data were analysed using nonlinear regression analysis (WinNonLn 4.1, Pharsight Corporation) and the IC50 value derived using an inhibitory sigmoid Emax model. […] Drug plate quality was assured by running schizont maturation assays (two independent experiments) with the chloroquine-resistant strain K1 and the chloroquine-sensitive strain FC27.\nFor microscopy slide reading QC, two randomly selected drugs per isolate were read by a second microscopist. […] If necessary, discrepant results were resolved by a third reading by an expert microscopist.",
  "data": [
    {"smiles": "Cc1nc(Nc2ncc(N3CCN(C)[C@H](C)C3)c(Nc3cc(C)n(C)n3)n2)cc(C2CC2)c1F", "note": "[Example 13, (R)—N2-(4-cyclopropyl-5-fluoro-6-methylpyridin-2-yl)-N4-(1,5-dimethyl-1H-pyrazol-3-yl)-5-(3,4-dimethylpiperazin-1-yl)pyrimidine-2,4-diamine]", "values": [
      {"measurement": "IC50", "value": 74.6, "unit": "nM"}
    ]}
  ]
}
